Experimental data from the supplement of paper PMC8671470.
± gives the standard deviation of the averaged measurements.

Experiments:
Conditions in all cases: 72 h
[1] = system: KG-1; test: cell viability (% survival relative to DMSO control, bortezomib = 0%); higher = less cytotoxic
In short: (§1)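 In 384-well plates pre-printed with compounds at 1, 10, 100, 1000 or 10000 nM, duplicate wells received cells from 10 AML and 5 CML lines at densities within the linear growth range. The plates stayed at 37 °C with 5% CO2 for 72 h before CellTiter-Glo luminescence was recorded. Each entry is averaged percent survival. Scaling placed vehicle at 100% and a 10 µM positive control at 0%.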

[2] = system: THP-1; test: as above
In short: as §1

[3] = system: BV-173; test: as above
In short: as §1

[4] = system: LAMA-84; test: as above
In short: as §1

[5] = system: Mono-Mac-6; test: as above
In short: as §1

[6] = system: NOMO-1; test: as above
In short: as §1

[7] = system: K-562; test: as above
In short: as §1

[8] = system: SHI-1; test: as above
In short: as §1

[9] = system: ML-2; test: as above
In short: as §1

[10] = system: MV4-11; test: as above
In short: as §1

[11] = system: HL-60; test: as above
In short: as §1

[12] = system: HEL; test: as above
In short: as §1

[13] = system: KU-812; test: as above
In short: as §1

[14] = system: KCL-22; test: as above
In short: as §1

[15] = system: MOLM-13; test: as above
In short: as §1

[16] = system: HL-60; test: cell viability (% survival relative to DMSO control); higher = less cytotoxic
In short: (§2)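 In 384-well plates, the full library was rescreened in duplicate on HL-60 cells in RPMI 1640 with 10% FBS, at 1–10,000 nM in five tenfold concentrations, for 72 h at 37 °C, 5% CO2. Each run also held DMSO or 100 nM of one of three metabolic inhibitors. Viability was measured by CellTiter-Glo and normalised to DMSO wells and to wells with proteasome inhibitor, present at 10 μM. Any area under the curve comes from four-parameter log-logistic fitting with drc and PharmacoGx.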

[17] = system: MV4-11
In short: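 Dose–response data were fitted with a four-parameter log-logistic model. They came from fifteen myeloid leukaemia lines treated in duplicate with five tenfold doses from 1 to 10,000 nM for 72 h at 37 °C with 5% CO2, with ATP viability normalised to vehicle and to a positive control at 10 µM. The IC50 was derived from these fits.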

[18] = system: HL-60; test: area under dose-response curve (viability, 1 nM-10 uM) (fraction (0-1)); higher = more sensitive
In short: as §2

Molecule `NCCCC(N)(C(=O)O)C(F)F` (stereo not given) [Difluoromethylornithine] has a cell viability ([1]; 1 nM) of 96.1%, a cell viability ([1]; 10 nM) of 88.8% and a cell viability ([1]; 100 nM) of 90.8%. For the same molecule, the cell viability ([1]; 1000 nM) was 95.1%, the cell viability ([1]; 10000 nM) was 105% and the cell viability ([2]; 1 nM) was 96.5%. The cell viability ([2]; 10 nM) was 95.6%, the cell viability ([2]; 100 nM) was 98.9% and the cell viability ([2]; 1000 nM) was 100%. For the same molecule, the cell viability ([2]; 10000 nM) was 104%, the cell viability ([3]; 1 nM) was 97.1% and the cell viability ([3]; 10 nM) was 91.2%. It also gave a cell viability ([3]; 100 nM) of 96.8%, a cell viability ([3]; 1000 nM) of 95.2% and a cell viability ([3]; 10000 nM) of 105%. It also gave a cell viability ([4]; 1 nM) of 107%, a cell viability ([4]; 10 nM) of 99.2% and a cell viability ([4]; 100 nM) of 91.8%. For the same molecule, the cell viability ([4]; 1000 nM) was 102%, the cell viability ([4]; 10000 nM) was 110% and the cell viability ([5]; 1 nM) was 98.2%. It also gave a cell viability ([5]; 10 nM) of 92.7%, a cell viability ([5]; 100 nM) of 94.2% and a cell viability ([5]; 1000 nM) of 98.5%. For the same molecule, the cell viability ([5]; 10000 nM) was 93.3%, the cell viability ([6]; 1 nM) was 99.5% and the cell viability ([6]; 10 nM) was 91.5%. For the same molecule, the cell viability ([6]; 100 nM) was 102%, the cell viability ([6]; 1000 nM) was 95.6% and the cell viability ([6]; 10000 nM) was 99.7%. It also gave a cell viability ([7]; 1 nM) of 99.3%, a cell viability ([7]; 10 nM) of 104% and a cell viability ([7]; 100 nM) of 97%. For the same molecule, the cell viability ([7]; 1000 nM) was 107%, the cell viability ([7]; 10000 nM) was 126% and the cell viability ([8]; 1 nM) was 100%. It also gave a cell viability ([8]; 10 nM) of 100%, a cell viability ([8]; 100 nM) of 90.9% and a cell viability ([8]; 1000 nM) of 104%. The cell viability ([8]; 10000 nM) was 106%, the cell viability ([9]; 1 nM) was 93.5% and the cell viability ([9]; 10 nM) was 79.1%. The cell viability ([9]; 100 nM) was 93.4%, the cell viability ([9]; 1000 nM) was 92.1% and the cell viability ([9]; 10000 nM) was 96.5%. It also gave a cell viability ([10]; 1 nM) of 93.8%, a cell viability ([10]; 10 nM) of 98.9% and a cell viability ([10]; 100 nM) of 81.3%. The cell viability ([10]; 1000 nM) was 85.5%, the cell viability ([10]; 10000 nM) was 109% and the cell viability ([11]; 1 nM) was 93.6%. The cell viability ([11]; 10 nM) was 123%, the cell viability ([11]; 100 nM) was 98.7% and the cell viability ([11]; 1000 nM) was 88.8%. It also gave a cell viability ([11]; 10000 nM) of 99.5%, a cell viability ([12]; 1 nM) of 100% and a cell viability ([12]; 10 nM) of 96.8%. For the same molecule, the cell viability ([12]; 100 nM) was 90.1%, the cell viability ([12]; 1000 nM) was 104% and the cell viability ([12]; 10000 nM) was 95.9%. It also gave a cell viability ([13]; 1 nM) of 116%, a cell viability ([13]; 10 nM) of 96.2% and a cell viability ([13]; 100 nM) of 83.1%. It also gave a cell viability ([13]; 1000 nM) of 99.3%, a cell viability ([13]; 10000 nM) of 105% and a cell viability ([14]; 1 nM) of 111%. For the same molecule, the cell viability ([14]; 10 nM) was 84.4%, the cell viability ([14]; 100 nM) was 88.1% and the cell viability ([14]; 1000 nM) was 95%. The cell viability ([14]; 10000 nM) was 101%, the cell viability ([15]; 1 nM) was 87.2% and the cell viability ([15]; 10 nM) was 103%. It also gave a cell viability ([15]; 100 nM) of 93.3%, a cell viability ([15]; 1000 nM) of 107% and a cell viability ([15]; 10000 nM) of 101%. For the same molecule, the cell viability ([16]; 0.001 µM, co-treatment: AZD3965 100 nM) was 105 ± 3.3%, the cell viability ([16]; 0.001 µM, co-treatment: DMSO vehicle) was 103 ± 2.6% and the cell viability ([16]; 0.001 µM, co-treatment: GSK2194069 100 nM) was 101 ± 7.7%. It also gave a cell viability ([16]; 0.001 µM, co-treatment: pictilisib 100 nM) of 100 ± 9.8%, a cell viability ([16]; 0.01 µM, co-treatment: AZD3965 100 nM) of 100.5 ± 0.84% and a cell viability ([16]; 0.01 µM, co-treatment: DMSO vehicle) of 97.01 ± 0.84%. It also gave a cell viability ([16]; 0.01 µM, co-treatment: GSK2194069 100 nM) of 98.8 ± 4.4%, a cell viability ([16]; 0.01 µM, co-treatment: pictilisib 100 nM) of 92.3 ± 4% and a cell viability ([16]; 0.1 µM, co-treatment: AZD3965 100 nM) of 100 ± 0.81%. For the same molecule, the cell viability ([16]; 0.1 µM, co-treatment: DMSO vehicle) was 104 ± 6%, the cell viability ([16]; 0.1 µM, co-treatment: GSK2194069 100 nM) was 104 ± 1.5% and the cell viability ([16]; 0.1 µM, co-treatment: pictilisib 100 nM) was 97.2 ± 1.6%. For the same molecule, the cell viability ([16]; 1 µM, co-treatment: AZD3965 100 nM) was 93.5 ± 2.9%, the cell viability ([16]; 1 µM, co-treatment: DMSO vehicle) was 101 ± 1.8% and the cell viability ([16]; 1 µM, co-treatment: GSK2194069 100 nM) was 95.6 ± 6.4%. It also gave a cell viability ([16]; 1 µM, co-treatment: pictilisib 100 nM) of 92.6 ± 4.1%, a cell viability ([16]; 10 µM, co-treatment: AZD3965 100 nM) of 96.8 ± 4% and a cell viability ([16]; 10 µM, co-treatment: DMSO vehicle) of 103 ± 1.9%. The cell viability ([16]; 10 µM, co-treatment: GSK2194069 100 nM) was 101 ± 4.5%, the cell viability ([16]; 10 µM, co-treatment: pictilisib 100 nM) was 94.6 ± 2% and the “IC50 (cell viability)” value [17] was greater than 10 µM. The “area under dose-response curve” value ([18]; co-treatment: AZD3965 100 nM) was less than 0.0301, the “area under dose-response curve” value ([18]; co-treatment: DMSO vehicle) was less than 0.0301 and the “area under dose-response curve” value ([18]; co-treatment: GSK2194069 100 nM) was less than 0.0301. The “area under dose-response curve” value ([18]; co-treatment: pictilisib 100 nM) was less than 0.0301.
